From ChEMBL document CHEMBL3991601, “The target landscape of clinical kinase drugs” (Science, 2017) come the findings set out here.

SMILES strings stand for the structures. Calls of active or inactive are those of the source. Some results are limits rather than exact numbers.

For assay [1], the target named is Dual specificity tyrosine-phosphorylation-regulated kinase 1B (Homo sapiens, UniProt Q9Y463).
Assay [2] concerns the target Cyclin-dependent kinase 18 (Homo sapiens, UniProt Q07002).
In assay [3] the target is Tyrosine-protein kinase JAK2 (Homo sapiens, UniProt O60674).
Tyrosine-protein kinase JAK2, sequence (O60674 whole entry): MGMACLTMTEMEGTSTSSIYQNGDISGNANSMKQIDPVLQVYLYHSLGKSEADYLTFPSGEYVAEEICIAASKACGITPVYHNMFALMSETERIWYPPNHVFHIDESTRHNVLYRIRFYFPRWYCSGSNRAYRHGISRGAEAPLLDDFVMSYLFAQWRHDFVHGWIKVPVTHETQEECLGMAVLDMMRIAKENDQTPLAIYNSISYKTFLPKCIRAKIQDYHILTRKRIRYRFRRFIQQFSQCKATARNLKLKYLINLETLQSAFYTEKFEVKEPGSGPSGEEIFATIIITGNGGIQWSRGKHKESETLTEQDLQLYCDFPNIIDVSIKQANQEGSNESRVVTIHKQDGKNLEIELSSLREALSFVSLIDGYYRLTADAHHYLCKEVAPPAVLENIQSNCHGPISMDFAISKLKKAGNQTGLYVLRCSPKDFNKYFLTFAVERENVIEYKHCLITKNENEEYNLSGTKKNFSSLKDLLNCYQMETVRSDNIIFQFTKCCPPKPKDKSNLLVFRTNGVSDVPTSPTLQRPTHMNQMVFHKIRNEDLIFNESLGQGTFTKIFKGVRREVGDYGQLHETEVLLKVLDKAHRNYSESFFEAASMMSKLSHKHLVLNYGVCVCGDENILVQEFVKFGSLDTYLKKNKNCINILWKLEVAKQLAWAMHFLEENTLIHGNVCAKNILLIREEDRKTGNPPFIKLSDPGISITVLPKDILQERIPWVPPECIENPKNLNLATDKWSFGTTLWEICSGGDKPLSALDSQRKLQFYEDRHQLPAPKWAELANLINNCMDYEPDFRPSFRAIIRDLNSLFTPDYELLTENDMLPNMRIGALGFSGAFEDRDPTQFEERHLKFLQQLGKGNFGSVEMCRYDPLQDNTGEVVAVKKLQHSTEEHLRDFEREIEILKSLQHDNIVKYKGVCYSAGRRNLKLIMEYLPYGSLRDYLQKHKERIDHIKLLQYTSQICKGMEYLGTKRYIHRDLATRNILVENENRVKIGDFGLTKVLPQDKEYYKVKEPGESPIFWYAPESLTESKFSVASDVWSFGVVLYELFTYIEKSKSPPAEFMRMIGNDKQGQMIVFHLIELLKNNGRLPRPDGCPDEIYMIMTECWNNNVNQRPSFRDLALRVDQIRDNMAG
In assay [4] the target is Nucleoside diphosphate kinase B (Homo sapiens, UniProt P22392).
Nucleoside diphosphate kinase B, sequence (P22392 whole entry): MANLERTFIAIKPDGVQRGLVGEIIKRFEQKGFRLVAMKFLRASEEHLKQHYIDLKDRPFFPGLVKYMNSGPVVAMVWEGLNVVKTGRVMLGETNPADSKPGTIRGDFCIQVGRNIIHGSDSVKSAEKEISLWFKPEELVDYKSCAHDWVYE
Assay [5] deals with Putative nucleoside diphosphate kinase (Homo sapiens, UniProt O60361).
Putative nucleoside diphosphate kinase, sequence (O60361 whole entry): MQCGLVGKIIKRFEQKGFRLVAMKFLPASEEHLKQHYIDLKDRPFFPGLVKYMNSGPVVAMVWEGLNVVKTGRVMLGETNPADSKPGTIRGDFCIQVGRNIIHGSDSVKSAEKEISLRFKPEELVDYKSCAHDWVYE
In assay [6] the target is T1, General transcription and DNA repair factor IIH helicase subunit XPD (Homo sapiens, UniProt P18074).
T1 sequence (P18074 whole entry): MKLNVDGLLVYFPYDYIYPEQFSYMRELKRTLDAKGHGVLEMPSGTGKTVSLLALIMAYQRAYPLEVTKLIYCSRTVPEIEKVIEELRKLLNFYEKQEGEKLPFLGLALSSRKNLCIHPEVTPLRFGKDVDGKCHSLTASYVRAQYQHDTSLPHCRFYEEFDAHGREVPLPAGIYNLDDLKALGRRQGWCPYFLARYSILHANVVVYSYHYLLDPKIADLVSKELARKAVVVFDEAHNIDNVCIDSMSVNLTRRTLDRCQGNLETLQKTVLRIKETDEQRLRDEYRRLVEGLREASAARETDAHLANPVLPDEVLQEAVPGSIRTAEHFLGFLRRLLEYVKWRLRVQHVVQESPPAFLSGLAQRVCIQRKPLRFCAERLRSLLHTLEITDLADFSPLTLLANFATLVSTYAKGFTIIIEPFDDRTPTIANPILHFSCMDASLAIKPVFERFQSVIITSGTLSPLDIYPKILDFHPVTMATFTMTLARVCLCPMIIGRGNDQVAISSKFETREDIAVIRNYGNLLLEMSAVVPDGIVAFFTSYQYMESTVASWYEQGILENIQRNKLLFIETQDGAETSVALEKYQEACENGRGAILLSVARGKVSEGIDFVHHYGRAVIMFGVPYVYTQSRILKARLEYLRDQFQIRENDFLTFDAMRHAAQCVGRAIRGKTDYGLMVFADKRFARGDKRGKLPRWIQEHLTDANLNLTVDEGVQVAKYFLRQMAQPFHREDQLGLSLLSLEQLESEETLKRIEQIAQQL

The target of assay [7] is 5'-AMP-activated protein kinase subunit gamma-1 (Homo sapiens, UniProt P54619).
5'-AMP-activated protein kinase subunit gamma-1, sequence (P54619 whole entry): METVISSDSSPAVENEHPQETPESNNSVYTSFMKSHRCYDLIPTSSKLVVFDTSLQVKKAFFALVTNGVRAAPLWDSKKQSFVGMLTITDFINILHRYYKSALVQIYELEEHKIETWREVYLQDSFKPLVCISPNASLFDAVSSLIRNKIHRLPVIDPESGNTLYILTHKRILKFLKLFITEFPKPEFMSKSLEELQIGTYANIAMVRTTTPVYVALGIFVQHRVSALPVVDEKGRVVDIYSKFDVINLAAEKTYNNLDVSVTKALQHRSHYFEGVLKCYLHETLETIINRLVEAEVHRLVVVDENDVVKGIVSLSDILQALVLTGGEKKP
Assay [8] has as its target 5'-AMP-activated protein kinase subunit gamma-2 (Homo sapiens, UniProt Q9UGJ0).
Assay [9] has as its target T2, Uncharacterized protein FLJ45252 (Homo sapiens, UniProt Q6ZSR9).
T2 sequence (Q6ZSR9 whole entry): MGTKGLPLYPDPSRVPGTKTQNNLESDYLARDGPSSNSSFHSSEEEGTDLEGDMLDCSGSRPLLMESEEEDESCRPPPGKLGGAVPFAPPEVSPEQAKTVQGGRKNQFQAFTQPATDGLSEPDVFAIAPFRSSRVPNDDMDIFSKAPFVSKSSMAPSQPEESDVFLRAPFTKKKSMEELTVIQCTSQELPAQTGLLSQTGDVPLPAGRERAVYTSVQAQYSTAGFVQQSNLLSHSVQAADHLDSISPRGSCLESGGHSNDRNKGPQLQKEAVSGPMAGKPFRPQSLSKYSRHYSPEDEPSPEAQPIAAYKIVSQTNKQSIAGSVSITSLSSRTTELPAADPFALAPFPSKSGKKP

Assay [10] concerns the target Activin receptor type-1-like (Homo sapiens, UniProt P37023).
Further: in the data inactive means no Kd found up to 30 µM.

5'-AMP-activated protein kinase subunit gamma-2, sequence (Q9UGJ0 whole entry): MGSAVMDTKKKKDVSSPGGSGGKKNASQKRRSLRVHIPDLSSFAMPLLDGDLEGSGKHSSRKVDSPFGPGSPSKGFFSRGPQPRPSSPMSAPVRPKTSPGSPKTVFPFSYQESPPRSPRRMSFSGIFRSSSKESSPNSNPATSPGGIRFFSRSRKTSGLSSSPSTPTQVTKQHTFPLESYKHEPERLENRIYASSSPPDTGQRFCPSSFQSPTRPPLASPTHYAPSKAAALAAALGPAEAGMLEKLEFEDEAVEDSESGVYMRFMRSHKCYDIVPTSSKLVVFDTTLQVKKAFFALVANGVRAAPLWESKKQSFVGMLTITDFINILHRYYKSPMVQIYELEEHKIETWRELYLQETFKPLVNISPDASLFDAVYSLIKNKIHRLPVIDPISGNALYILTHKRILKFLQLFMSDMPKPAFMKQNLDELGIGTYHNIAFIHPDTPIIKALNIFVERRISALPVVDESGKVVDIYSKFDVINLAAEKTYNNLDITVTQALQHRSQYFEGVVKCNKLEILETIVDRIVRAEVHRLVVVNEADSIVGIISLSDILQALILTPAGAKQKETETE
Cyclin-dependent kinase 18, sequence (Q07002 whole entry): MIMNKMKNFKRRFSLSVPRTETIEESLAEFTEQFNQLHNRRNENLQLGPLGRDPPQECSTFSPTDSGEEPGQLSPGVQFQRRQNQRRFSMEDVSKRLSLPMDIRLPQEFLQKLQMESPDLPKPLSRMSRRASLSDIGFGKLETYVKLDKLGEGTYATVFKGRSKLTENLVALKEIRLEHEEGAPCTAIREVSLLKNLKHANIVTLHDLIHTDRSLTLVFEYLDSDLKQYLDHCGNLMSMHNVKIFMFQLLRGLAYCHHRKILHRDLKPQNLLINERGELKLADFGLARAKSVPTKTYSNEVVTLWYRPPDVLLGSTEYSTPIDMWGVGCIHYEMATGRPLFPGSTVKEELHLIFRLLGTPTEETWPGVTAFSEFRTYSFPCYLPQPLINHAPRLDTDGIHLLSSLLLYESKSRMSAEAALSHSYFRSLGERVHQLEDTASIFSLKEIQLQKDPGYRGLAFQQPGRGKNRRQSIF
Dual specificity tyrosine-phosphorylation-regulated kinase 1B, sequence (Q9Y463 whole entry): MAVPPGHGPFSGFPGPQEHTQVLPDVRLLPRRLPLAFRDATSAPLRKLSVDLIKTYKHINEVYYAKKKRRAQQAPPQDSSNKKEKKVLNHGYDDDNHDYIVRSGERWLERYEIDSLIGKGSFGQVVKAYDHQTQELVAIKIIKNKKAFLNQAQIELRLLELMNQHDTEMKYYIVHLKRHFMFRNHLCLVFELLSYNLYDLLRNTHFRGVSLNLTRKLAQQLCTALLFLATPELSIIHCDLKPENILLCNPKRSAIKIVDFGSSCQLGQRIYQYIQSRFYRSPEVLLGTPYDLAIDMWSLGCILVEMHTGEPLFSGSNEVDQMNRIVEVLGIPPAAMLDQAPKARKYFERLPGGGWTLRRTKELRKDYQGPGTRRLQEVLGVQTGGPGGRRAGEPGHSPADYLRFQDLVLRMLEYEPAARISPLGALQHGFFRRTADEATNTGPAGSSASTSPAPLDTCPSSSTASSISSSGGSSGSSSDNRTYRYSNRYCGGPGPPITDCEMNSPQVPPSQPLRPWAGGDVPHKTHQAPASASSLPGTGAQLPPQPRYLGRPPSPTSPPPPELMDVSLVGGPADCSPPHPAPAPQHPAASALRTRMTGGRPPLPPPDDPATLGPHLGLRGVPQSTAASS
Activin receptor type-1-like, sequence (P37023 whole entry): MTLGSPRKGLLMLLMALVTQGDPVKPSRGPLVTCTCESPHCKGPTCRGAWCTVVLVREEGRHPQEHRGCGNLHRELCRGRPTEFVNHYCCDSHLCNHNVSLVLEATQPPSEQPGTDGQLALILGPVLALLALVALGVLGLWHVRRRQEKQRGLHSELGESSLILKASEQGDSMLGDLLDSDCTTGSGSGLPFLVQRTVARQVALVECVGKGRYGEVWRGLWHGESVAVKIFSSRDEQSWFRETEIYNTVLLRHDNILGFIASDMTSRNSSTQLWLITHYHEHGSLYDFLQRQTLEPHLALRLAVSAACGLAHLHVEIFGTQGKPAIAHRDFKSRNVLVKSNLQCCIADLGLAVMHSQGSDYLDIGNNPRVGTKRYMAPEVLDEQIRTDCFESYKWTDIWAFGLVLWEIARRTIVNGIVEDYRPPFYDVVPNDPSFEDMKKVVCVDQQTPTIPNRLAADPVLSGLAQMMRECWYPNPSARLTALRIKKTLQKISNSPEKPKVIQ

Broadly, the Kd is the free concentration of one partner at which half of the binding sites on the other are occupied at equilibrium, for simple one-to-one binding. For the compound `O[C@H]1CC[C@H](Nc2ncc3nc(Nc4c(F)cc(F)cc4F)n([C@H]4CCOC4)c3n2)CC1` [TANZISERTIB], the Kd in [1] was > 30 µM (inactive).
For the compound `c1cc(OCCN2CCCCC2)cc(-c2n[nH]c3ccc(-c4nc[nH]n4)cc23)c1` [CC-401], in [2], the Kd was > 30 µM (inactive).
Take `O=C(Nc1ccc(OC(F)(F)F)cc1)c1sccc1NCc1ccnc2ccccc12` [OSI-930]: the Kd in assay [2] was > 30 µM (inactive).
Take `CNC(=O)c1ccc(Nc2ncc(C(F)(F)F)c(NCc3nccnc3N(C)S(C)(=O)=O)n2)cc1` [DEFACTINIB]: the Kd in [2] and in assay [1] was > 30 µM (inactive) each time.
`O=S(=O)(c1cccc2c(O)nccc12)N1CCCNCC1` [HYDROXYFASUDIL]: in assay [3], the Kd is > 30 µM (inactive).
As to `CN(c1ncccc1CNc1nc(Nc2ccc3c(c2)CC(=O)N3)ncc1C(F)(F)F)S(C)(=O)=O` [PF-00562271], the Kd in [4] is > 30 µM (inactive); in [5] it was 0.862 µM.
Turning to `COc1cc2c(Oc3ccc4[nH]c(C)cc4c3F)ncnc2cc1OCCCN1CCCC1` [CEDIRANIB], the Kd in assay [6], in [7], in assay [8] and in [9] was > 30 µM (inactive) throughout.
For `NC(=O)c1ccc(N(C(N)=O)c2c(F)cccc2F)nc1-c1ccc(F)cc1F` [VX-702], the Kd in assay [4] and in [5] was > 30 µM (inactive) each time.
Turning to `C=CC(=O)Nc1cc(Nc2nccc(-c3cn(C)c4ccccc34)n2)c(OC)cc1N(C)CCN(C)C` [OSIMERTINIB], the Kd in [6], in [4], in assay [5], in [7], in assay [8] and in [9] was > 30 µM (inactive) throughout.
For the compound `COCCN1CCN(Cc2ccc(-c3n[nH]c4c3C(=O)c3c(NC(=O)NN5CCOCC5)cccc3-4)cc2)CC1` [RGB-286638], in [1], the Kd is > 30 µM (inactive).
Take `Cn1c(=O)c(F)c(Nc2ccc(I)cc2F)c2c(=O)n(C[C@@H](O)CO)cnc21` [TAK-733]: the Kd in [3] and in [4] was > 30 µM (inactive) in each case.
Turning to `COc1cc(Nc2ncc(F)c(Nc3ccc4c(n3)N(COP(=O)(O)O)C(=O)C(C)(C)O4)n2)cc(OC)c1OC` [FOSTAMATINIB], the Kd in assay [1] and in [3] was > 30 µM (inactive) throughout.
On to `C#Cc1cccc(Nc2ncnc3cc4c(cc23)OCCOCCOCCO4)c1` [ICOTINIB], for which the Kd in assay [2] and in assay [1] was > 30 µM (inactive) each time.
For the compound `FC(F)(F)c1ccc(CNc2ccc(Cc3c[nH]c4ncc(Cl)cc34)cn2)cn1` [PEXIDARTINIB], the Kd in assay [6] is > 30 µM (inactive); in [7], > 30 µM (inactive); in assay [8] it was > 30 µM (inactive); in assay [9], 1.45 µM (active).
With `CC(C)(O)CC(=O)NCCn1ccc2ncnc(Nc3ccc(Oc4cccc(C(F)(F)F)c4)c(Cl)c3)c21` [TAK-285], in [2], the Kd is > 30 µM (inactive).
The same measure, in the same setting: the value for `C=CCn1c(=O)c2cnc(Nc3ccc(N4CCN(C)CC4)cc3)nc2n1-c1cccc(C(C)(C)O)n1` [ADAVOSERTIB] was > 30 µM (inactive).
Regarding `CCOc1ccn(-c2ccc(F)cc2)c(=O)c1C(=O)Nc1ccc(Oc2ccnc(N)c2Cl)c(F)c1` [BMS-777607], the Kd in assay [6], in assay [7] and in assay [9] was > 30 µM (inactive) each time.
On to `CCc1cc2c(cc1N1CCC(N3CCOCC3)CC1)C(C)(C)c1[nH]c3cc(C#N)ccc3c1C2=O` [ALECTINIB], for which the Kd in assay [2] and in [1] was > 30 µM (inactive) each time.
Turning to `Cc1c(NC(=O)OC[C@@H]2COCCN2)cn2ncnc(Nc3ccc4c(cnn4Cc4cccc(F)c4)c3)c12` [AC-480], in [10], the Kd was > 30 µM (inactive).
Turning to `Cc1cc(-c2cc(OC(=O)c3ccccc3)ccc2Cl)cc2nnc(Nc3ccc(OCCN4CCCC4)cc3)nc12` [TG100-801], the Kd in assay [1] and in [3] was > 30 µM (inactive) throughout.
Turning to `COc1cc2nccc(Oc3ccc(NC(=O)C4(C(=O)Nc5ccc(F)cc5)CC4)cc3)c2cc1OC` [CABOZANTINIB], the Kd in [1] and in [3] was > 30 µM (inactive) throughout.
In the case of `Cc1c(Cn2c(C)nc3c(C(=O)O)cc(N4CCOCC4)cc32)cccc1C(F)(F)F` [GSK-2636771], the Kd in assay [2] is > 30 µM (inactive).
Take `Cc1cc(Nc2nc(N[C@@H](C)c3ncc(F)cn3)ncc2Cl)n[nH]1` [AZD-1480]: the Kd in assay [3] was > 30 µM (inactive).
As to `C[C@]1(O)C[C@@H](c2nc(-c3ccc4ccc(-c5ccccc5)nc4c3)c3c(N)nccn32)C1` [LINSITINIB], the Kd in assay [10] is > 30 µM (inactive).
For `CNC(=O)c1cccc(-c2ccc3c(N4CCOC[C@@H]4C)nc(N4CCOC[C@@H]4C)nc3n2)c1` [VISTUSERTIB], the Kd in assay [10], in assay [1] and in assay [3] was > 30 µM (inactive) each time.
For `O=C(NC[C@H](O)CO)c1ccncc1Nc1ccc(I)cc1F` [PIMASERTIB], the Kd in [3] is > 30 µM (inactive).
For `O=C(NOC[C@H](O)CO)c1ccc(F)c(F)c1Nc1ccc(I)cc1F` [MIRDAMETINIB], the Kd in assay [10] and in assay [3] was > 30 µM (inactive) in each case.
Take `CC1(COc2ccc3c(c2)ncn3-c2ccc3cccc(N4CCC(N)CC4)c3n2)COC1` [CRENOLANIB]: the Kd in assay [3] is > 30 µM (inactive).
With `COc1ccc2c(OCc3nnc4ccc(-c5ccccc5)nn34)ccnc2c1` [AMG-208], the Kd in assay [10], in assay [1] and in assay [3] was > 30 µM (inactive) each time.
